Results reported in patent US11254680B2, “Cyclic iminopyrimidine derivatives as kinase inhibitors” (ABM Therapeutics Corporation, priority 2017, dated 2022).

Key:
A375 melanoma cells = experiment: Antiproliferation assay in A375 cell line by CellTiter Glo; format: cell-based; conditions: Homo sapiens, A-375, 72 hours or 144 hours
Method: In vitro anti-proliferation study of test compounds in A375 cell line by CellTiter Glo. The cells were routinely maintained as a monolayer culture in corresponding culture medium, at 37° C. with 5% CO2 in air.
Harvest the exponential growth cells by trypsin-EDTA digestion. Re-suspend the cell pellet in fresh culture medium, and adjust the concentration to needed (the cell density per well was listed in following form). The cell viability is over 98% by Trypan blue staining. Inoculate cells into 96 wells plates according to the plate map (90 μL/well). Incubate the plates at 37° C. and 5% CO2 overnight. The next day, prepare the 10×compound containing medium according to the plate map. Transfer 10 μL of 10×compound containing medium into each well of the assay plates (the final DMSO concentration is 0.5%). Gently mix the medium and incubate at 37° C. and 5% CO2 for another 72 hours or 144 hours.
Prepare the reagent according to the manufacture's instruction. Add 50 μL CellTiter-Glo Reagent in each well. Mix contents for 2 minutes on an orbital shaker to induce cell lysis. Allow the plate to incubate at room temperature for 10 minutes to stabilize luminescent signal. Transfer 100 μL of reaction contents of each well from the clear plates into white walled/white opaque 96-well plates. Record the luminescence on Envision.
Using the luminescence measurements [time zero (T0), control growth (C), and test growth in the presence of drug at the six concentration levels (Ti)], the percentage growth is calculated at each of the drug concentrations levels.
Percentage growth inhibition (GI) is calculated as: GI (%)═[(Ti-T0)/(C-T0)]×100 for concentrations for which Ti>=T0, and GI (%)═[(Ti-T0)/T0]×100 for concentrations for which Ti<T0. Data were analyzed using the XLFit (Excel) tool, fitting to a 4-parameter equation to generate concentration response curves. Concentration of compound that inhibits 50% of control cell growth (GI50) was back-interpolated when y=50% of net growth of DMSO treated control wells using nonlinear regression with the equation: f(x) 205 [fit=(A+((B−A)/(1+((C/x)^))))], where A is the minimum response (Ymin), B is the maximum response (Ymax), C is the inflection point of the curve (Re GI50) and D is the Hill coefficient. Growth inhibition of 50% (GI50) was calculated at the 50% Growth inhibition on the curve. Index values were the sum of Inhibition rate (IR) at each tested compound concentration.

P-glycoprotein (MDR1) = experiment: MDCK-MDR1 Permeability Assay; format: in vitro ADME, canine; conditions: dog; for efflux ratio at 120 min: MDCK-MDR1, Papp(B-A)/Papp(A-B); for Papp A→B at 120 min: MDCK-MDR1, apical to basolateral; for Papp A→B at 120 min / Papp B→A at 120 min: 1-30 μM; for Papp B→A at 120 min: MDCK-MDR1, basolateral to apical
Method: MDCK-MDR1 cells originate from transfection of Madin Darby canine kidney (MDCK) cells with the MDR1 gene, the gene encoding for the efflux protein, P-glycoprotein. This cell line is ideal for identifying substrates of P-gp, with or without an inhibitor. The cells are seeded on a Multiscreen™ plate to form a confluent monolayer over 4 days prior to the experiment. On day 4, the test compound (1-30 μM concentration) is added to the apical side of the membrane and the transport of the compound across the monolayer is monitored over a 120 minutes time period. To study drug efflux, it is also necessary to investigate transport of the compound from the basolateral compartment to the apical compartment and calculate an efflux ratio.
(§1) The permeability coefficient (Papp) is calculated from the following equation: Papp=[(dQ/dt)/C0×A] where dQ/dt is the rate of permeation of the drug across the cells, C0 is the donor compartment concentration at time zero and A is the area of the cell monolayer.
An efflux ratio is calculated from the mean apical to basolateral (A-B) Papp data and basolateral to apical (B-A) Papp data. Efflux Ratio=Papp(B−A)/Papp(A−B)

[1] = Caco-2 Permeability Assay; format: in vitro ADME; conditions: human; for efflux ratio at 120 min: Caco-2; for Papp A→B at 120 min: Caco-2, apical to basolateral; for Papp A→B at 120 min / Papp B→A at 120 min: 1-30 μM; for Papp B→A at 120 min: Caco-2, basolateral to apical
Method: Caco-2 cells are widely used as an in vitro assay to measure the permeability of a drug compound. The Caco-2 cell line is derived from a human colorectal carcinoma, and when cultured, the cells spontaneously differentiate into monolayers of polarized enterocytes. Caco-2 cells express P-glycoprotein and breast cancer resistance protein, two of the most relevant cell membrane active transporters that affect drug compound's permeability into cells and blood brain barrier.
The cells are seeded on Millipore Millicell plates and form a confluent monolayer over 20 days prior to the experiment. On day 20, the test compound (1-30 μM concentration) is added to the apical side of the membrane and the transport of the compound across the monolayer is monitored over a 120 minutes time period. To study drug efflux, it is also necessary to investigate transport of the compound from the basolateral compartment to the apical compartment.
as §1, with “monolayer. C0 is obtained from analysis of the dosing solution at the start experiment.” for “monolayer.”

HT-29 colon cancer cells = experiment: Antiproliferation assay in HT-29 cells by CellTiter Glo; format: cell-based; conditions: Homo sapiens, 72 hours or 144 hours
[2] = Mouse Pharmacokinetics Study; format: in vivo; conditions: CD-1 mice
Text: The pharmacokinetic properties of selected compounds were studied CD-1 mice via intravenous and oral administration by using a standard protocol. The test articles were formulated in 20% Hydroxypropyl-beta-cyclodextrin, either as a clear solution or fine suspension.

CCCS(=O)(=O)Nc1ccc(F)c(Oc2ccc3c(c2)C2=NCCN2C=N3)c1C#N [Compound 3, N-(2-Cyano-3-((2,3-dihydroimidazo[1,2-c]quinazolin-9-yl)oxy)-4-fluorophenyl)propane-1-sulfonamide]
GI50 (A375 melanoma cells): < 0.1 µM | efflux ratio at 120 min (P-glycoprotein (MDR1)): 9.85 | Papp A→B at 120 min (P-glycoprotein (MDR1)): 21.5 nm/s | Papp B→A at 120 min (P-glycoprotein (MDR1)): 212 nm/s | efflux ratio at 120 min [1]: 1.48 | Papp A→B at 120 min [1]: 92.4 nm/s | Papp B→A at 120 min [1]: 137 nm/s

CCCS(=O)(=O)Nc1nccc(Oc2ccc3c(c2)C2=NCCCN2C=N3)c1Cl [Compound 26, N-(3-Chloro-4-((3,4-dihydro-2H-pyrimido[1,2-c]quinazolin-10-yl)oxy)pyridin-2-yl)propane-1-sulfonamide]
GI50 (A375 melanoma cells): < 0.1 µM | GI50 (HT-29 colon cancer cells): < 0.1 µM | efflux ratio at 120 min (P-glycoprotein (MDR1)): 4.98 | Papp A→B at 120 min (P-glycoprotein (MDR1)): 39.5 nm/s | Papp B→A at 120 min (P-glycoprotein (MDR1)): 196 nm/s

N#Cc1c(NS(=O)(=O)c2ccccc2F)cccc1Oc1ccc2c(c1)C1=NCCN1C=N2 [Compound 14, N-(2-Cyano-3-((2,3-dihydroimidazo[1,2-c]quinazolin-9-yl)oxy)phenyl)-2-fluorobenzenesulfonamide]
GI50 (A375 melanoma cells): < 0.1 µM | efflux ratio at 120 min (P-glycoprotein (MDR1)): 2.73 | Papp A→B at 120 min (P-glycoprotein (MDR1)): 30.3 nm/s | Papp B→A at 120 min (P-glycoprotein (MDR1)): 82.9 nm/s | efflux ratio at 120 min [1]: 2.77 | Papp A→B at 120 min [1]: 63.7 nm/s | Papp B→A at 120 min [1]: 177 nm/s

CCCS(=O)(=O)Nc1cccc(Oc2ccc3c(c2)C2=NCCN2C=N3)c1C#N [Compound 1, N-(2-Cyano-3-((2,3-dihydroimidazo[1,2-c]quinazolin-9-yl)oxy)phenyl)propane-1-sulfonamide]
GI50 (A375 melanoma cells): < 0.1 µM | GI50 (HT-29 colon cancer cells): < 0.1 µM | efflux ratio at 120 min (P-glycoprotein (MDR1)): 6.53 | Papp A→B at 120 min (P-glycoprotein (MDR1)): 36.5 nm/s | Papp B→A at 120 min (P-glycoprotein (MDR1)): 238 nm/s | efflux ratio at 120 min [1]: 2.92 | Papp A→B at 120 min [1]: 64.2 nm/s | Papp B→A at 120 min [1]: 187 nm/s | F ([2]; PO 30 mg/kg): 112 ± 14% | Vd ([2]; mouse, plasma, IV 2.5 mg/kg): 0.348 ± 0.037 L/kg | half-life ([2]; mouse, plasma, IV 2.5 mg/kg, 20% Hydroxypropyl-beta-cyclodextrin): 1.47 ± 0.19 h | clearance ([2]; mouse, plasma, IV 2.5 mg/kg, read-out: Clp): 0.166 ± 0.0312 L/h/kg | AUC ([2]; mouse, PO 30 mg/kg, plasma): 207 ± 25.9 µg·h/mL | Cmax ([2]; mouse, PO 30 mg/kg, plasma): 37.3 ± 6.24 µg/mL | Tmax ([2]; mouse, PO 30 mg/kg, plasma): 1 h

CCCS(=O)(=O)Nc1ccc(F)c(Oc2ccc3c(c2)C2=NCCCN2C=N3)c1C#N [Compound 17, N-(2-cyano-3-((3,4-dihydro-2H-pyrimido[1,2-c]quinazolin-10-yl)oxy)-4-fluorophenyl)propane-1-sulfonamide]
GI50 (A375 melanoma cells): < 0.1 µM | efflux ratio at 120 min (P-glycoprotein (MDR1)): 13.2 | Papp A→B at 120 min (P-glycoprotein (MDR1)): 7 nm/s | Papp B→A at 120 min (P-glycoprotein (MDR1)): 92.8 nm/s

CCCS(=O)(=O)N(C)c1cccc(Oc2ccc3c(c2)C2=NCCN2C=N3)c1C#N [Compound 2, N-(2-Cyano-3-((2,3-dihydroimidazo[1,2-c]quinazolin-9-yl)oxy)phenyl)-N-methylpropane-1-sulfonamide]
GI50 (A375 melanoma cells): > 1 µM | efflux ratio at 120 min (P-glycoprotein (MDR1)): 2.63 | Papp A→B at 120 min (P-glycoprotein (MDR1)): 190 nm/s | Papp B→A at 120 min (P-glycoprotein (MDR1)): 500 nm/s

CCCS(=O)(=O)Nc1c(F)ccc(Oc2ccc3c(c2)C2=NCCN2C=N3)c1C#N [Compound 5, N-(2-Cyano-3-((2,3-dihydroimidazo[1,2-c]quinazolin-9-yl)oxy)-6-fluorophenyl)propane-1-sulfonamide]
GI50 (A375 melanoma cells): 0.1 to 1 µM | efflux ratio at 120 min (P-glycoprotein (MDR1)): 1.82 | Papp A→B at 120 min (P-glycoprotein (MDR1)): 12.1 nm/s | Papp B→A at 120 min (P-glycoprotein (MDR1)): 21.9 nm/s

CCCS(=O)(=O)Nc1nccc(Oc2ccc3c(c2)C2=NCCCN2C=N3)c1[N+](=O)[O-] [Compound 23, N-(4-((3,4-Dihydro-2H-pyrimido[1,2-c]quinazolin-10-yl)oxy)-3-nitropyridin-2-yl)propane-1-sulfonamide]
GI50 (A375 melanoma cells): > 1 µM | GI50 (HT-29 colon cancer cells): > 1 µM

CCCS(=O)(=O)Nc1cccc(Oc2ccc3c(c2)C2=NCCN2C=N3)c1C(F)(F)F [Compound 11, N-(3-((2,3-Dihydroimidazo[1,2-c]quinazolin-9-yl)oxy)-2-(trifluoromethyl)phenyl)propane-1-sulfonamide]
GI50 (A375 melanoma cells): 0.1 to 1 µM | efflux ratio at 120 min (P-glycoprotein (MDR1)): 1.22 | Papp A→B at 120 min (P-glycoprotein (MDR1)): 346 nm/s | Papp B→A at 120 min (P-glycoprotein (MDR1)): 423 nm/s

CCCS(=O)(=O)Nc1cccc(Oc2ccc3c(c2)C2=NCCN2C=N3)c1[N+](=O)[O-] [Compound 12, N-(3-((2,3-Dihydroimidazo[1,2-c]quinazolin-9-yl)oxy)-2-nitrophenyl)propane-1-sulfonamide]
GI50 (A375 melanoma cells): < 0.1 µM | efflux ratio at 120 min (P-glycoprotein (MDR1)): 4.3 | Papp A→B at 120 min (P-glycoprotein (MDR1)): 66 nm/s | Papp B→A at 120 min (P-glycoprotein (MDR1)): 284 nm/s

CCCS(=O)(=O)Nc1cccc(Oc2ccc3c(c2)C2=NCCCN2C=N3)c1F [Compound 18, N-(3-((3,4-Dihydro-2H-pyrimido[1,2-c]quinazolin-10-yl)oxy)-2-fluorophenyl)propane-1-sulfonamide]
GI50 (A375 melanoma cells): < 0.1 µM | GI50 (HT-29 colon cancer cells): 0.1 to 1 µM | efflux ratio at 120 min [1]: 2.2 | Papp A→B at 120 min [1]: 113 nm/s | Papp B→A at 120 min [1]: 248 nm/s

CCCS(=O)(=O)Nc1cccc(Oc2ccc3c(c2)C2=NCCN2C=N3)c1F [Compound 9, N-(3-((2,3-Dihydroimidazo[1,2-c]quinazolin-9-yl)oxy)-2-fluorophenyl)propane-1-sulfonamide]
GI50 (A375 melanoma cells): 0.1 to 1 µM | efflux ratio at 120 min (P-glycoprotein (MDR1)): 2.47 | Papp A→B at 120 min (P-glycoprotein (MDR1)): 176 nm/s | Papp B→A at 120 min (P-glycoprotein (MDR1)): 434 nm/s

CCCS(=O)(=O)Nc1cccc(Oc2ccc3c(c2)C2=NCCCN2C=N3)c1C#N [Compound 16, N-(2-cyano-3-((3,4-dihydro-2H-pyrimido[1,2-c]quinazolin-10-yl)oxy)phenyl)propane-1-sulfonamide]
GI50 (A375 melanoma cells): < 0.1 µM | GI50 (HT-29 colon cancer cells): < 0.1 µM | efflux ratio at 120 min (P-glycoprotein (MDR1)): 8.79 | Papp A→B at 120 min (P-glycoprotein (MDR1)): 10.1 nm/s | Papp B→A at 120 min (P-glycoprotein (MDR1)): 88.9 nm/s

O=S(=O)(Nc1cccc(Oc2ccc3c(c2)C2=NCCN2C=N3)c1Cl)N1CC[C@@H](F)C1 [Compound 46, (R)—N-(2-Chloro-3-((2,3-dihydroimidazo[1,2-c]quinazolin-9-yl)oxy)phenyl)-3-fluoropyrrolidine-1-sulfonamide]
GI50 (A375 melanoma cells): < 0.1 µM | efflux ratio at 120 min (P-glycoprotein (MDR1)): 2.79 | Papp A→B at 120 min (P-glycoprotein (MDR1)): 208 nm/s | Papp B→A at 120 min (P-glycoprotein (MDR1)): 579 nm/s

N#Cc1c(NS(=O)(=O)c2cccs2)cccc1Oc1ccc2c(c1)C1=NCCN1C=N2 [Compound 15, N-(2-Cyano-3-((2,3-dihydroimidazo[1,2-c]quinazolin-9-yl)oxy)phenyl)thiophene-2-sulfonamide]
GI50 (A375 melanoma cells): 0.1 to 1 µM | efflux ratio at 120 min (P-glycoprotein (MDR1)): 1.73 | Papp A→B at 120 min (P-glycoprotein (MDR1)): 31 nm/s | Papp B→A at 120 min (P-glycoprotein (MDR1)): 53.6 nm/s | efflux ratio at 120 min [1]: 2.94 | Papp A→B at 120 min [1]: 50.8 nm/s | Papp B→A at 120 min [1]: 149 nm/s
